Results as given in the NIST ThermoML archive (doi:10.1016/j.tca.2007.04.006).

Test: molar heat capacity at constant pressure
Conditions: 101.33 kPa, Crystal, Vacuum adiabatic calorimetry

Nc1ccc([N+](=O)[O-])cn1 [2-amino-5-nitropyridine]
Conditions | molar heat capacity at constant pressure [J/K/mol]
80 K | 52.33
80.24 K | 52.77
84.16 K | 54.56
85 K | 55.34
87.02 K | 56.26
89.97 K | 58.05
90 K | 58.25
93.01 K | 60.06
95 K | 61.07
96.12 K | 61.79
99.15 K | 63.52
100 K | 63.81
102.11 K | 65.16
105 K | 66.48
105.16 K | 66.83
108.3 K | 68.54
110 K | 69.08
111.38 K | 69.97
114.4 K | 71.41
115 K | 71.62
117.37 K | 72.83
120 K | 74.11
120.43 K | 74.39
123.58 K | 76.05
125 K | 76.55
126.69 K | 77.4
129.75 K | 78.85
130 K | 78.95
132.77 K | 80.21
135 K | 81.31
135.75 K | 81.69
138.82 K | 82.97
140 K | 83.65
141.99 K | 84.37
145 K | 85.96
145.12 K | 85.83
148.21 K | 87.22
150 K | 88.25
151.26 K | 88.71
154.29 K | 90.07
155 K | 90.53
157.29 K | 91.42
160 K | 92.79
160.26 K | 92.54
163.32 K | 93.8
165 K | 95.05
166.47 K | 95.36
169.59 K | 96.53
170 K | 97.31
172.69 K | 97.56
175 K | 99.56
175.76 K | 99.17
178.81 K | 100.66
180 K | 101.83
181.83 K | 101.77
184.86 K | 103.74
185 K | 104.09
188 K | 105.44
190 K | 106.38
191.24 K | 107.04
194.48 K | 108.11
195 K | 108.67
197.71 K | 110.07
200 K | 110.98
200.95 K | 111.83
204.28 K | 113.75
205 K | 113.31
207.71 K | 115.82
210 K | 115.66
211.1 K | 117.36
214.45 K | 118.48
215 K | 118.02
217.75 K | 119.73
220 K | 120.42
220.98 K | 121.46
224.24 K | 123.44
225 K | 122.83
227.37 K | 125.24
230 K | 125.27
230.47 K | 126.78
233.53 K | 128
235 K | 127.73
236.7 K | 129.18
239.83 K | 130.77
240 K | 130.22
242.82 K | 132.21
245 K | 132.74
245.9 K | 133.33
249 K | 134.92
250 K | 135.28
252.08 K | 136.09
255 K | 137.85
255.25 K | 137.55
258.39 K | 138.82
260 K | 140.44
261.52 K | 140.61
264.62 K | 142.67
265 K | 143.05
267.71 K | 144.57
270 K | 145.69
270.79 K | 146.14
273.84 K | 147.16
275 K | 148.34
276.89 K | 148.4
279.92 K | 149.95
280 K | 151.02
282.94 K | 151.57
285 K | 153.71
286.05 K | 152.95
289.25 K | 154.4
290 K | 156.42
292.39 K | 157.06
295 K | 159.13
295.48 K | 158.97
298.15 K | 160.85
298.56 K | 161.47
300 K | 161.86
301.64 K | 163.12
304.71 K | 164.66
305 K | 164.59
307.77 K | 165.74
310 K | 167.33
310.83 K | 167.2
313.87 K | 168.75
315 K | 170.06
316.9 K | 170.43
319.93 K | 172.15
320 K | 172.79
323.02 K | 174.56
325 K | 175.51
326.19 K | 175.6
329.34 K | 177.96
330 K | 178.22
332.48 K | 180.37
335 K | 180.91
335.62 K | 182.54
338.77 K | 183.77
340 K | 183.58
341.9 K | 185.05
345 K | 186.22
345.02 K | 186.91
348.14 K | 188.46
350 K | 188.82
351.24 K | 190.04
354.33 K | 191.86
355 K | 191.39
357.42 K | 193.4
360 K | 193.92
360.58 K | 194.97
363.8 K | 195.55
365 K | 196.39
367.02 K | 197.03
370 K | 198.81
370.23 K | 198.93
373.42 K | 200.16
375 K | 201.16
376.61 K | 202.18
379.79 K | 203.08
380 K | 203.44
382.96 K | 204.62
385 K | 205.64
386.12 K | 205.85
389.27 K | 207.34
390 K | 207.76
392.45 K | 208.4
395 K | 209.78
395.48 K | 209.36
